“Also recorded” adds a separate entry of the source.
Tests used:
[1] = biological target: T1, cardiac late sodium current (INa) (Homo sapiens, UniProt Q14524); assay: Inhibition of the cardiac late sodium current; format: biochemical
[2] = biological target: T1, cardiac late sodium current (INa); conditions: see US 2013/0012492; cited from earlier work
[3] = tested on: cytochrome P450 (CYP) enzymes; assay: Cytochrome P450 inhibition; format: in vitro ADME
P-glycoproteins = P-glycoproteins (Homo sapiens, UniProt P08183); assay: P-glycoprotein inhibition; format: in vitro ADME
[4] = tested on: model of long QT syndrome-3 (LQT3); assay: Model of LQT-3: action potential duration and beat-to-beat variability
patients with LQT3 = assay: Phase 1 clinical study in patients with LQT3 (QTc, ECHO, tolerability); format: in vivo, human; conditions: for Tolerability: Phase 1; for Change in QTc from baseline: all dose levels (10-60 mg single, multiple dose cohort)
Description: In an ongoing Phase 1, effect of oral Compound (I) on the QTc interval in subjects with LQT3 was evaluated. Subjects with LQT3 identified from the LQTS registry with proven mutations in the cardiac sodium channel and a QTc >460 msec will be enrolled. Four sequential single dose cohorts and 1 multiple dose cohort were enrolled and received a single dose of Compound (I) (Cohort 1: 10 mg; Cohort 2: 20 mg; Cohort 3: 30 mg; Cohort-4: 60 mg) or multiple doses of Compound (I) (Cohort 5: Day 1—20 mg, Day 2—40 mg, Days 3-7—6 mg once daily).
Ten subjects were enrolled. Among these 10 subjects, 3 subjects received single oral dose of Compound (I), 5 subjects received Compound (I) at 2 different dose periods, and 2 subjects received Compound (I) at 3 different dose periods. […] Changes in QTc interval from baseline (Day −1 for Cohorts 1-4; average of Day −2 and Day −1 for Cohort 5) were analyzed in 2 different ways: 1) changes in average daytime QTc during 12 hours postdose (QTc interval AUC0-12/12) and 2) maximal time-matched QTc changes within 12 hours postdose. […] In the multiple dose cohort (shown in FIG. 5-6), the effect of Compound (I) on QTc shortening was dose-dependent with a larger QTc shortening after 40 mg on Day 2 compared to 20 mg on Day 1. More importantly, the QTc shortening was sustained during the maintenance doses of 6 mg from Days 3-7.
In addition, effect of Compound (I) on cardiac function was assessed by ECHO. For the single dose cohorts, echocardiography (ECHO) was performed at baseline (Day −1) and at 3 and 6 hours after the single oral dose of Compound (I) on Day 1. For the multiple dose cohort (Cohort 5), ECHO was performed at baseline (Day −1), at 3 and 6 hours after the single oral dose of Compound (I) on Day 1, and at 3 hours after dose on Day 4 and Day 7.

[5] = PK after single oral dose in patients with LQT-3; format: in vivo, human
From the text: This is similar to the PK profile of Compound 1 in healthy volunteers.

rabbit isolated heart = assay: Rabbit isolated heart, E-4031 model of LQT-2 and drug-induced QT prolongation
From the text: E-4031 is an inhibitor of IKr. […] Hearts were paced at a rate of 1 Hz.
The use of rabbits (New Zealand White adult females, 2-4 kg; Western Oregon Rabbit Company, Philomath, Oreg.) in this investigation conformed to the “Guide for the Care and Use of Laboratory Animals” (NIH publication No. 85-23, revised 1996) and was approved by the Institutional Animal Care and Use Committees of Gilead Sciences. Hearts were isolated and perfused by the method of Langendorff as previously described (Wu et al., 2009). Briefly, the atrioventricular nodal area was thermally ablated to produce heart block, and hearts were paced at a rate of 1 Hz. Monophasic action potentials (MAPs) from the left ventricular epicardium and pseudo 12-lead electrocardiograms (ECGs) were recorded. […] The duration of the MAP at the level at which repolarization is 90% complete (MAPD90) was measured.

[6] = tested on: rabbit isolated wedge preparation; assay: Rabbit isolated left ventricular wedge preparation, E-4031 model of LQT-2; conditions: 60 nM E-4031, 300 nM Compound 1, cycle lengths 500, 1000 and 2000 msec
Description: E-4031 is an inhibitor of IKr.
Rabbit isolated left ventricular wedge was prepared as previously described (Yan et al, 1996, 2009). Briefly, the chest was opened via a left thoracotomy, and the heart was excised, placed in a cardioplegic solution consisting of cold (4° C.) Tyrode's solution containing 20 mmol/L […], and transported to a dissection tray. Transmural wedges with dimensions of approximately 1×1×0.8 or 0.8×0.8×0.4 cm^3 were dissected from the left ventricle. The tissue was cannulated via a small (diameter, ≈100 μm) branch of the left anterior descending artery or another coronary artery and perfused with cardioplegic solution. The total period of time from excision of the heart to cannulation and perfusion of the artery was less than 4 minutes. Unperfused tissue was carefully removed with a razor blade. The preparation was then placed in a tissue bath and arterially perfused with Tyrode's solution of the following composition (mmol/L): NaCl 129, KCl 4, NaH2PO4 0.9, NaHCO3 20, Ca 1.8, MgSO4 0.5, glucose 5.5, and insulin 1 U/L, buffered with 95% O2/5% CO2 (36±1° C.). The perfusate was delivered to the artery by a roller pump (Cole Panner Instrument Co). Perfusion pressure was monitored with a pressure transducer (World Precision Instruments, Inc) and maintained between 40 and 50 mm Hg by adjustment of the perfusion flow rate. The preparations remained immersed in the arterial perfusate, which was allowed to rise to a level 2 to 3 mm above the tissue surface (36±1° C.).

[7] = LQT3 patients, listed as Compound (I)
[8] = after single dose administration

T1 sequence (Q14524 whole entry): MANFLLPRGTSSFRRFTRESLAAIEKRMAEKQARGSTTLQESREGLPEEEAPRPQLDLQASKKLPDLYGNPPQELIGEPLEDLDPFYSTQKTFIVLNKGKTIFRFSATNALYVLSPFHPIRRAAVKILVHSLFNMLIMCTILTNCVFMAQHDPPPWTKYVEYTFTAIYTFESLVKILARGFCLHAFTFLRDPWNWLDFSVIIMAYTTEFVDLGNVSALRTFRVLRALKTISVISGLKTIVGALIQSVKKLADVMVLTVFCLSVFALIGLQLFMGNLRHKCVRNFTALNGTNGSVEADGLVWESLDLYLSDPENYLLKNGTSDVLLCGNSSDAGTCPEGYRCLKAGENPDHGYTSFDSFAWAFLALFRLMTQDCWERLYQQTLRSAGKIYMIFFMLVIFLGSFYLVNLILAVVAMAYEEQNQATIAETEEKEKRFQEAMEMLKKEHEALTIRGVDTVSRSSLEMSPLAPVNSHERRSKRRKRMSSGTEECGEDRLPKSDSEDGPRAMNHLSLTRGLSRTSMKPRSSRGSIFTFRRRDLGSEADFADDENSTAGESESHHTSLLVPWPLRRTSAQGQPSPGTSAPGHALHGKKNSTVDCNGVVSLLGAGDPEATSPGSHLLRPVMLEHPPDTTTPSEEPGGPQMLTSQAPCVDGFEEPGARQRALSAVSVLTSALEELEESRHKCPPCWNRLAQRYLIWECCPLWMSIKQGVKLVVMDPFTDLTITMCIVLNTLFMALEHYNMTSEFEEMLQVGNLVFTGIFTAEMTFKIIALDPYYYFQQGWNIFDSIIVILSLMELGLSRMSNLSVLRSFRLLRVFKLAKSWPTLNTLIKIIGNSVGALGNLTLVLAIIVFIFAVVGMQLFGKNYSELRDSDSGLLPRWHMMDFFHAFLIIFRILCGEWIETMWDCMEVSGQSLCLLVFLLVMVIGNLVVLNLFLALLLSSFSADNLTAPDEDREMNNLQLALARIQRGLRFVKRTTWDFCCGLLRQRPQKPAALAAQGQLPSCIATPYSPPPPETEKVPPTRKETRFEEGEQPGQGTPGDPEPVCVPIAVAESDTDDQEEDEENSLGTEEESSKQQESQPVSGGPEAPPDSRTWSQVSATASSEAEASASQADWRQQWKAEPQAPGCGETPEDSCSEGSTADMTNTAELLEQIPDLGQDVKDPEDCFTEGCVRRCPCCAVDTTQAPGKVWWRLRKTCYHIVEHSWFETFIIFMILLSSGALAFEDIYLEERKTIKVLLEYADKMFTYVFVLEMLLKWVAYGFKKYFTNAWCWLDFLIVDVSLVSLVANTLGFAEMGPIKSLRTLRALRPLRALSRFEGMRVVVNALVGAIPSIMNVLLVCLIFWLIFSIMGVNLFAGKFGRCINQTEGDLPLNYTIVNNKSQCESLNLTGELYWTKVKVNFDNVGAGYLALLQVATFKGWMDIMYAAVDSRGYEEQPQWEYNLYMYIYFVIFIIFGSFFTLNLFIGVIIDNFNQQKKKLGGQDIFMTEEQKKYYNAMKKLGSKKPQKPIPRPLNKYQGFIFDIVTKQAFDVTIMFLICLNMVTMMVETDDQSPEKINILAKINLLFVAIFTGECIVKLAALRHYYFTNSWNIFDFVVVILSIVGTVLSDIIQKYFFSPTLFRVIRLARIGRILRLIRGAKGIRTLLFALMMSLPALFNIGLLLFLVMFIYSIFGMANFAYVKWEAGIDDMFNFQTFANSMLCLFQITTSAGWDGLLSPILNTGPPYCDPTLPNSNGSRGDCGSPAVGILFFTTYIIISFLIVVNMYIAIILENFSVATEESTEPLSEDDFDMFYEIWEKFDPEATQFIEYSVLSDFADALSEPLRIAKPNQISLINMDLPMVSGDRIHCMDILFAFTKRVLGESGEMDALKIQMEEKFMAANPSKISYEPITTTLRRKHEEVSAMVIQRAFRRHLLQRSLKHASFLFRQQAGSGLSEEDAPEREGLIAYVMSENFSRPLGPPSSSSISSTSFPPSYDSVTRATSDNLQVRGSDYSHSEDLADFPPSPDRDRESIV
P-glycoproteins, sequence (P08183 whole entry): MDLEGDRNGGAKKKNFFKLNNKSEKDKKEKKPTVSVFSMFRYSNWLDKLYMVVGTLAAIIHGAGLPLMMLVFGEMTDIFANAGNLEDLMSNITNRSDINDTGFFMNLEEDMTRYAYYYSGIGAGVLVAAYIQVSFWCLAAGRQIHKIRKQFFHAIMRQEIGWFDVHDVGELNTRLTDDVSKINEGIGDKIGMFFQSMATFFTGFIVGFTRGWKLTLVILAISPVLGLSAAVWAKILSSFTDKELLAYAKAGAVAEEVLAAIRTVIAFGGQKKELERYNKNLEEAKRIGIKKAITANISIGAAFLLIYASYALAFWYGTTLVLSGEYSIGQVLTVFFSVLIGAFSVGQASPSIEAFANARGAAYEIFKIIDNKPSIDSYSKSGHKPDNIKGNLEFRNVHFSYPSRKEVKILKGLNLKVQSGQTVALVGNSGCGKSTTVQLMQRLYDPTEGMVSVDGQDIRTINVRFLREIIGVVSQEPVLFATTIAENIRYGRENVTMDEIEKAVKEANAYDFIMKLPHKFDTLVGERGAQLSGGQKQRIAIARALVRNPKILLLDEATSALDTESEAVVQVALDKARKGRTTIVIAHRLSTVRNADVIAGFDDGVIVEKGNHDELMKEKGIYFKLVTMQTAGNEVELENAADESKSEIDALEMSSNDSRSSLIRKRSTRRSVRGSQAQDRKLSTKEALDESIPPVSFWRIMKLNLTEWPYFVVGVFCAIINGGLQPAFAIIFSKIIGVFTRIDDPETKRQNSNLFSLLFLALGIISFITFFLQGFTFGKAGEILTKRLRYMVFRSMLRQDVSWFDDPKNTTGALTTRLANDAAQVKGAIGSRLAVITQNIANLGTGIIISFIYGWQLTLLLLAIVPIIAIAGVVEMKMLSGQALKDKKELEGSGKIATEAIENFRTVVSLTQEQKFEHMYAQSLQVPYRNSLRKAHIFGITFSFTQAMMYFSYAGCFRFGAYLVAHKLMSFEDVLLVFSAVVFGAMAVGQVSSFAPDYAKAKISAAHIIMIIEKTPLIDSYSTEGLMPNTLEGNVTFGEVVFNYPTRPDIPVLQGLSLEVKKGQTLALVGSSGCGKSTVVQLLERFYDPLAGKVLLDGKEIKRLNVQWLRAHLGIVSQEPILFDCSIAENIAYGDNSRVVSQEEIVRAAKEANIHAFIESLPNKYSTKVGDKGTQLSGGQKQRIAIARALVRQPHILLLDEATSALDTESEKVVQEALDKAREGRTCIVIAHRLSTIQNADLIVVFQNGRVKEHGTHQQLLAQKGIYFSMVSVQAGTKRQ

O=C1c2cc(-c3ccc(C(F)(F)F)cc3)ccc2OCCN1Cc1ncccn1 [Compound 2, 4-(pyrimidin-2-ylmethyl)-7-(4-(trifluoromethyl)phenyl)-3,4-dihydrobenzo[f][1,4]oxazepin-5(2H)-one]
Inhibition of the cardiac late sodium current (INa) [1]: potent and selective inhibitors | Late sodium channel inhibition [2]: potent late sodium channel inhibitors

O=C1c2cc(-c3ccc(OC(F)(F)F)cc3)ccc2OCCN1Cc1ncccn1 [Compound 1, 4-(pyrimidin-2-ylmethyl)-7-(4-(trifluoromethoxy)phenyl)-3,4-dihydrobenzo[f][1,4]oxazepin-5(2H)-one]
Inhibition of the cardiac late sodium current (INa) [1]: potent and selective inhibitors | Inhibition of cytochrome P450 (CYP) enzymes [3]: does not inhibit | Inhibition of P-glycoproteins (P-glycoproteins): does not inhibit | Beat-to-beat variability ([4]; model of LQT3, FIG. 2): reduction | Action potential duration (APD) ([4]; model of LQT-3, FIG. 1): shortening | Efficacy (QTc shortening or T-wave morphology) (patients with LQT3; 10 mg, three patients with inherited LQT3): preliminary efficacy | Dependence of QTc shortening on mutations or concomitant use of b-blockers (patients with LQT3; LQT3 patients): independent | Tolerability (patients with LQT3; LQT3 patients): well tolerated | Tolerability (patients with LQT3; [7]): well tolerated; also recorded: well-tolerated | Change in QTc from baseline (patients with LQT3; LQT3 patients): changes in QTc from baseline | Change in QTc from baseline (patients with LQT3; [7]): Shortening of QTc was observed at all dose levels; also recorded: shortens QTc interval | Left ventricular (LV) functions / cardiac function assessed by ECHO (patients with LQT3; LQT3 patients, single and multiple dose cohorts, listed as Compound (I)): did not affect; also recorded: no effect | Treatment of long QT syndrome in humans, specifically LQT3 (patients with LQT3; human, in vivo): effective | Persistence of QTc shortening (patients with LQT3; maintenance doses of 6 mg from Days 3-7): sustained | Dose dependence of QTc shortening (patients with LQT3; multiple dose cohort, 40 mg on Day 2 compared to 20 mg on Day 1): dose-dependent | QTc shortening (patients with LQT3; ten LQT-3 patients, single dose 10 mg, 20 mg, 30 mg or 60 mg): 20-100 milliseconds | Absorption [5, 8]: fast absorption | Clearance [5, 8]: low clearance | Decline of concentration [5, 8]: biphasic decline | Half-life [5, 8]: long half-life | PK profile in LQT3 patients compared with healthy volunteers ([5]; single oral dose, FIG. 4): similar | Prolonged monophasic action potential (MAP) (rabbit isolated heart; 60 nM E-4031, 100 and 300 nM Compound 1, paced at 1 Hz): shortens | Torsades de pointes (TdP) ventricular tachyarrhythmia (rabbit isolated heart; induced by 60 nM E-4031, paced at 1 Hz): suppresses | Prolonged action potential duration (APD) [6]: shortens | QT interval [6]: shortens | Tpeak to Tend (TpTe) [6]: shortens | Late sodium channel inhibition [2]: potent late sodium channel inhibitors
